Experimental data as given in US11807625B2, “Capsid inhibitors for the prevention of HIV” (Gilead Sciences, Inc., priority 2019, dated 2023).

Test: PK of compound of Formula (Ia) after single subcutaneous dose of solution formulations in beagle dogs
Assay type: in vivo
Conditions: male, beagle, dog, plasma, sc, 12 mg/kg, beagle dogs, SC 12 mg/kg
Experimental: Formulations containing the compound of Formula (Ia), or a pharmaceutically acceptable salt thereof, were prepared as solutions and optionally administered subcutaneously or intramuscularly to rats, rabbits, and/or dogs.
(§1) A solution of about 400 mg/mL of the compound of Formula (Ia) having 17.00 w/w % water, 36.40 w/w % PEG 300, 35.20 w/w % of a sodium salt of a compound of Formula (Ia), 5.00 w/w % ethanol, and 6.40 w/w % poloxamer 188 was prepared. The solution was administered subcutaneously to male beagle dogs at a dose level of about 12 mg/kg and male Wistar Han rats at a dose level of about 50 mg/kg. The pharmacokinetic profiles were determined, and the results for dogs are summarized in Table and Table, while the results for rats are summarized in Table and Table below.
as §1, with “500” for “400”, “14.06” for “17.00”, “30.12” for “36.40”
A solution of about 300 mg/mL of the compound of Formula (Ia) having 23.33 w/w % water, 48.99 w/w % PEG 300, 26.47 w/w % of a sodium salt of a compound of Formula (Ia), and 1.21 w/w % poloxamer 188 was prepared. The solution was administered subcutaneously to male beagle dogs at a dose level of about 6 mg/kg and male Wistar Han rats at a dose level of about 50 mg/kg. The pharmacokinetic profiles were determined, and the results for dogs are summarized in Table and Table, while the results for rats are summarized in Table and Table below.
as §1, with “18.80” for “17.00”, “40.25” for “36.40”, “34.38” for “35.20”, “1.57” for “6.40”
as §1, with “500” for “400”, “16.29” for “17.00”, “34.88” for “36.40”, “41.92” for “35.20”, “1.91” for “6.40”
as §1, with “20.90” for “17.00”, “44.72” for “36.40”, “and 34.38” for “35.20”, “(Ia)” for “(Ia), 5.00 w/w % ethanol, and 6.40 w/w % poloxamer 188”
A solution of about 400 mg/mL of the compound of Formula (Ia) having 19.90 w/w % water, 42.59 w/w % PEG 300, 34.38 w/w % of a sodium salt of a compound of Formula (Ia), and 3.13 w/w % poloxamer 188 was prepared. The solution was administered subcutaneously to male beagle dogs at a dose level of about 12 mg/kg and male Wistar Han rats at a dose level of about 50 mg/kg. […]

[1] = 400 mg/mL solution W (5.00% ethanol, 1.57% poloxamer 188), Mean n = 3
[2] = 400 mg/mL solution W (5.00% ethanol, 1.57% poloxamer 188), animals #1-#3
[3] = 400 mg/mL solution Y (water, PEG 300), Mean n = 3
[4] = 400 mg/mL solution Y (water, PEG 300), animals #1-#3
[5] = 400 mg/mL solution Z (3.13% poloxamer 188), animals #1-#3
[6] = 400 mg/mL solution Z (3.13% poloxamer 188), Mean n = 3
[7] = 500 mg/mL solution X (5.00% ethanol, 1.91% poloxamer 188), Mean n = 3
[8] = 500 mg/mL solution X (5.00% ethanol, 1.91% poloxamer 188), animals #1-#3

concentration at 96 h [1]: 43.5 nM
concentration at 168 h [1]: 40.3 nM
concentration at 336 h [1]: 133 nM
concentration at 504 h [1]: 121 nM
concentration at 672 h [1]: 145 nM
concentration at 840 h [1]: 82.4 nM
concentration at 1008 h [1]: 71.7 nM
concentration at 1008 h [2]: 80.7 nM
concentration at 1344 h [1]: 80.7 nM
concentration at 1344 h [2]: 72.3 nM
concentration at 1680 h [1]: 34.9 nM
concentration at 1680 h [2]: 28.8 nM
concentration at 2016 h [1]: 35.3 nM
concentration at 2016 h [2]: 25.8 nM
concentration at 2352 h [1]: 21.9 nM
concentration at 2352 h [2]: 16.8 nM
concentration at 2688 h [1]: 13.3 nM
concentration at 2688 h [2]: 9.87 nM
concentration at 3024 h [1]: 11.4 nM
concentration at 3024 h [2]: 10.5 nM
concentration at 3360 h [1]: 7.4 nM
concentration at 3360 h [2]: 6.7 nM
concentration at 3696 h [1]: 4.7 nM
concentration at 4032 h (400 mg/mL solution W (5.00% ethanol, 1.57% poloxamer 188), 4032 h, Mean n = 3): 5.6 nM
concentration at 4368 h (400 mg/mL solution W (5.00% ethanol, 1.57% poloxamer 188), 4368 h, Mean n = 3): 5.7 nM
concentration at 1 h [3]: 9.61 nM
concentration at 3 h [3]: 17.9 nM
concentration at 8 h [3]: 33.9 nM
concentration at 24 h [3]: 69.9 nM
concentration at 48 h [3]: 77.1 nM
concentration at 72 h [3]: 58.5 nM
concentration at 72 h [4]: 73.6 nM
concentration at 96 h [3]: 58.4 nM
concentration at 96 h [4]: 73.8 nM
concentration at 168 h [3]: 47.8 nM
concentration at 168 h [4]: 41.2 nM
concentration at 336 h [3]: 164 nM
concentration at 336 h [4]: 163 nM
concentration at 504 h [3]: 248 nM
concentration at 504 h [4]: 247 nM
concentration at 672 h [3]: 205 nM
concentration at 672 h [4]: 229 nM
concentration at 840 h [3]: 123 nM
concentration at 840 h [4]: 136 nM
concentration at 1008 h [3]: 95.8 nM
concentration at 1008 h [4]: 119 nM
concentration at 1334 h [3]: 58.2 nM
concentration at 1334 h [4]: 70.5 nM
concentration at 1680 h [3]: 28.4 nM
concentration at 1680 h [4]: 27.2 nM
concentration at 2016 h [3]: 18.6 nM
concentration at 2016 h [4]: 17.7 nM
concentration at 2352 h [3]: 15.4 nM
concentration at 2352 h [4]: 18.1 nM
concentration at 2688 h [3]: 9.47 nM
concentration at 2688 h [4]: 8.23 nM
concentration at 3024 h [3]: 6.15 nM
concentration at 3024 h [4]: 5.55 nM
concentration at 3360 h [3]: 5.11 nM
concentration at 3696 h [3]: 3.76 nM
concentration at 1 h (400 mg/mL solution Z (3.13% poloxamer 188), Mean): 1.58 nM
concentration at 1 h [5]: 1.66 nM
concentration at 3 h [6]: 5.83 nM
concentration at 8 h [6]: 34 nM
concentration at 24 h [6]: 80.5 nM
concentration at 48 h [6]: 61.6 nM
concentration at 72 h [6]: 65.1 nM
concentration at 72 h [5]: 89.8 nM
concentration at 96 h [6]: 70.6 nM
concentration at 168 h [6]: 60.6 nM
concentration at 336 h [6]: 172 nM
concentration at 504 h [6]: 228 nM
concentration at 504 h [5]: 301 nM
concentration at 672 h [6]: 117 nM
concentration at 672 h [5]: 144 nM
concentration at 840 h [6]: 95.7 nM
concentration at 840 h [5]: 107 nM
concentration at 1008 h [6]: 79.9 nM
concentration at 1008 h [5]: 93.3 nM
concentration at 1334 h [6]: 50.2 nM
concentration at 1334 h [5]: 51.6 nM
concentration at 1680 h [6]: 24.2 nM
concentration at 2016 h [6]: 15.2 nM
concentration at 2352 h [6]: 8.85 nM
concentration at 2688 h [6]: 6.06 nM
concentration at 3024 h [6]: 5.61 nM
concentration at 3024 h [5]: 3.65 nM
concentration at 3360 h [6]: 3.41 nM
concentration at 3696 h [6]: 1.75 nM
concentration at 1 h [7]: 12.1 nM
concentration at 3 h [7]: 15.2 nM
concentration at 3 h [8]: 19.4 nM
concentration at 8 h [7]: 26.1 nM
concentration at 8 h [8]: 22.3 nM
SMILES: CC(C)(C#Cc1ccc(-c2ccc(Cl)c3c(NS(C)(=O)=O)nn(CC(F)(F)F)c23)c([C@H](Cc2cc(F)cc(F)c2)NC(=O)Cn2nc(C(F)(F)F)c3c2C(F)(F)[C@@H]2C[C@H]32)n1)S(C)(=O)=O [compound of Formula (Ia)]
